Patent US20130196984A1, “3-AMINO-5-PHENYL-56-DIHYDRO-2H-[1,4]OXAZINES” (Siena Biotech S.p.A., priority 2009, published 2013)
Structures can show the parent of a compound that is named as a salt.

Assays:
BACE2 [1] = target: T1, BACE2 (Rattus norvegicus, UniProt Q6IE75); assay: Assay for BACE inhibition by measuring cellular TMEM27 cleavage; assay type: cell-based; details: INS-TMEM27 (INS1e-derived) cells, ELISA of shed human TMEM27 in supernatant;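 note: inhibitor added 2 h before doxycycline-induced hTMEM27 expression, supernatant collected after further 46 h, endogenous BACE2 activity read as reduced TMEM27 shedding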
T1 construct: endogenous cellular BACE2 in the Ins1e rat cell line; endogenous in cells; host or cells: INS-TMEM27 (INS1e-derived rat cell line with doxycycline-inducible full-length hTMEM27)
T1 sequence (Q6IE75 63-514): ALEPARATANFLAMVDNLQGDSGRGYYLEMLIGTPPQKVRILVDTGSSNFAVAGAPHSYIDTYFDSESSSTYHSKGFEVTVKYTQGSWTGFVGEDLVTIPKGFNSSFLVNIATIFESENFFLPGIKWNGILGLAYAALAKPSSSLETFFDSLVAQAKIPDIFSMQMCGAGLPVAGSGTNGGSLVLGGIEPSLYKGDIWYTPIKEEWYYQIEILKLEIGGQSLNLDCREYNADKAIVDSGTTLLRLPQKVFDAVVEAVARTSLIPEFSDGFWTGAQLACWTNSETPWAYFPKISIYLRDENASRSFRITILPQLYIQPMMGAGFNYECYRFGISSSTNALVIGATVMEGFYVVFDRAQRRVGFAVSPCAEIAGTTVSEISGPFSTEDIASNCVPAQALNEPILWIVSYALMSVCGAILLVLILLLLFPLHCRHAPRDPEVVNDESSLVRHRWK

BACE2 [2] = target: T2, BACE2 (Homo sapiens, UniProt Q9Y5Z0); assay: Assay A: binding studies using SPR based methods, immobilised BACE2; details: CM5 chip, immobilised BACE2 enzyme ectodomain, acetate buffer pH 4.6, 4% DMSO
T2 construct: BACE2 enzyme ectodomain (derived from plasmid “pET17b-T7-hu proBACE2”); T7 (N); made in house
T2 sequence (Q9Y5Z0 63-473 limits assumed): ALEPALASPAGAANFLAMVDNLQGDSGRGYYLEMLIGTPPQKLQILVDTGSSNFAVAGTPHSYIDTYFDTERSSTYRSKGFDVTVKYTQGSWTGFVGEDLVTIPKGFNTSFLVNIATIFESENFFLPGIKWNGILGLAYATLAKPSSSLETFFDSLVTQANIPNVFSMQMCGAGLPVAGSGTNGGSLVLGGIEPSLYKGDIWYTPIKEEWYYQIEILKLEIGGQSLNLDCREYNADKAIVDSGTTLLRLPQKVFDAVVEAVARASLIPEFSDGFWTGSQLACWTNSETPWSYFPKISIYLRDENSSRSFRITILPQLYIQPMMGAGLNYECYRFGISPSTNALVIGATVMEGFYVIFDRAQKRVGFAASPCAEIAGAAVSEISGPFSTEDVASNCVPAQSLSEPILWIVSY

BACE1 [3] = target: T3, BACE1 (Homo sapiens, UniProt P56817); assay: Cellular Abeta-lowering assay; assay type: cell-based; set-up: endogenous in cells; host or cells: HEK293 stably transfected with human APP695 wt; details: HEK293 cells stably transfected with human APP wt (APP695), Aβ40 ELISA of supernatant after 18-20 hrs
BACE1 [4] = target: T3, BACE1; assay: Assay A: binding studies using SPR based methods, immobilised BACE1; set-up: 6his-tagged full length BACE 1 expressed in SF9 cells; 6His; made in house; host or cells: SF9 insect cells; details: CM5 chip, immobilised 6his-tagged full length BACE 1, acetate buffer pH 4.6, 4% DMSO;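 note: KD from a 1:1 kinetic fit (koff/kon) of real-time association and dissociation curves, or for fast binders from end-of-association equilibrium responses plotted against log concentration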

T3 sequence (P56817 46-501): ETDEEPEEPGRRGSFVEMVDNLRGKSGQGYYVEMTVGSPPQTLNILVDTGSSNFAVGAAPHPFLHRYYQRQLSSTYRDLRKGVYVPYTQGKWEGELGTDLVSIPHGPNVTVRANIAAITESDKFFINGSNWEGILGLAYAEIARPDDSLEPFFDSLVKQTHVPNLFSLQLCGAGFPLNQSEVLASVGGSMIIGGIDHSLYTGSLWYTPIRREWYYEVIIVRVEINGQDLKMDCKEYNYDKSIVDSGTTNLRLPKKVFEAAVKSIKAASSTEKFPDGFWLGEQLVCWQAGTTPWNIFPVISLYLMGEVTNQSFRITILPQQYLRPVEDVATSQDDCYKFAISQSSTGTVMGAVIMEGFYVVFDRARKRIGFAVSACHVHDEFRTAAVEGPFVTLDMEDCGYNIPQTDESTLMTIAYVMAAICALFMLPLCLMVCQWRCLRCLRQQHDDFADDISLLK

For `CC1(c2cccc(NC(=O)c3ncc(F)cc3F)c2)COCC(N)=N1` (racemic) [Example 1, (RS)-3,5-Difluoro-pyridine-2-carboxylic acid [3-(5-amino-3-methyl-3,6-dihydro-2H-[1,4]oxazin-3-yl)-phenyl]-amide], the IC50 (BACE2 [1]) was 21 nM and the Kd (BACE2 [2]) was 44 nM.

For `Cc1nc(C(=O)Nc2cccc(C3(C)COCC(N)=N3)c2)co1` (racemic) [Example 12, (RS)-2-methyl-oxazole-4-carboxylic acid [3-(5-amino-3-methyl-3,6-dihydro-2H-[1,4]oxazin-3-yl)-phenyl]-amide], the IC50 (BACE1 [3]) was 20 nM and the IC50 (BACE2 [1]) was 17 nM.

With `CC1(c2cc(NC(=O)c3ccc(Cl)cn3)ccc2F)COCC(N)=N1` (racemic) [Example 20, (RS)-5-chloro-pyridine-2-carboxylic acid [3-(5-amino-3-methyl-3,6-dihydro-2H-[1,4]oxazin-3-yl)-4-fluoro-phenyl]-amide] the IC50 (BACE2 [1]) was 6 nM and the Kd (BACE2 [2]) was 8 nM.

`CC1(c2cc(NC(=O)C(F)(F)C(F)(F)F)ccc2F)COCC(N)=N1` (racemic) [Example 26, (RS)—N-[3-(5-Amino-3-methyl-3,6-dihydro-2H-[1,4]oxazin-3-yl)-4-fluoro-phenyl]-2,2,3,3,3-pentafluoro-propionamide] was tested, and the IC50 (BACE1 [3]) was 375 nM and the IC50 (BACE2 [1]) was 2230 nM.

`CC1(c2cc(NC(=S)c3ccc(Cl)cc3)ccc2F)COCC(N)=N1` (racemic) [Example 27, (RS)—N-[3-(5-Amino-3-methyl-3,6-dihydro-2H-[1,4]oxazin-3-yl)-4-fluoro-phenyl]-4-chloro-thiobenzamide] showed an IC50 (BACE1 [3]) of 1130 nM and an IC50 (BACE2 [1]) of 320 nM.

With `CC1(c2cccc(NC(=O)c3ncc(C(F)(F)F)cc3Cl)c2)COCC(N)=N1` (racemic) [Example 33, 3-Chloro-5-trifluoromethyl-pyridine-2-carboxylic acid [3-((RS)-5-amino-3-methyl-3,6-dihydro-2H-[1,4]oxazin-3-yl)-phenyl]-amide] the IC50 (BACE1 [3]) was 26 nM, the Kd (BACE2 [2]) was 141 nM and the Kd (BACE1 [4]) was 77 nM.

With `CC1(c2cc(NC(=O)c3ccc(-c4cnco4)cc3)ccc2F)COCC(N)=N1` (racemic) [Example 52, (RS)—N-[3-(5-amino-3-methyl-3,6-dihydro-2H-[1,4]oxazin-3-yl)-4-fluoro-phenyl]-4-oxazol-5-yl-benzamide] the IC50 (BACE1 [3]) was 1180 nM, the Kd (BACE2 [2]) was > 10000 nM and the Kd (BACE1 [4]) was 194 nM.

For `CC1(c2cc(NC(=O)C3(C(F)(F)F)CC3)ccc2F)COCC(N)=N1` (racemic) [Example 57], the IC50 (BACE2 [1]) was 320 nM, the Kd (BACE2 [2]) was 1800 nM and the Kd (BACE1 [4]) was > 10000 nM.

With `CC1(c2cccc(NC(=O)c3ccc(OCC4CC4)cn3)c2)COCC(N)=N1` (racemic) [Example 60, 5-cyclopropylmethoxy-pyridine-2-carboxylic acid [3-((RS)-5-amino-3-methyl-3,6-dihydro-2H-[1,4]oxazin-3-yl)-phenyl]-amide hydrochloride] the IC50 (BACE1 [3]) was 140 nM, the Kd (BACE2 [2]) was 117 nM and the Kd (BACE1 [4]) was 112 nM.

In the case of `CC1(c2cccc(NC(=O)c3ccc(OCCF)cn3)c2)COCC(N)=N1` (racemic) [Example 61, 5-(2-fluoro-ethoxy)-pyridine-2-carboxylic acid [3-((RS)-5-amino-3-methyl-3,6-dihydro-2H-[1,4]oxazin-3-yl)-phenyl]-amide hydrochloride], the IC50 (BACE1 [3]) is reported as 390 nM, the Kd (BACE2 [2]) is reported as 4680 nM and the Kd (BACE1 [4]) is reported as 440 nM.

For `CC1(c2cccc(NC(=O)c3ccc(OCC(F)F)cn3)c2)COCC(N)=N1` (racemic) [Example 62, 5-(2,2-difluoro-ethoxy)-pyridine-2-carboxylic acid [3-((RS)-5-amino-3-methyl-3,6-dihydro-2H-[1,4]oxazin-3-yl)-phenyl]-amide hydrochloride], the IC50 (BACE1 [3]) was 270 nM, the Kd (BACE2 [2]) was 7340 nM and the Kd (BACE1 [4]) was 5520 nM.

In the case of `CC1(c2cccc(NC(=O)c3ccncn3)c2)COCC(N)=N1` (racemic) [Example 63, pyrimidine-4-carboxylic acid [3-((RS)-5-amino-3-methyl-3,6-dihydro-2H-[1,4]oxazin-3-yl)-phenyl]-amide], the IC50 (BACE1 [3]) is reported as 510 nM, the Kd (BACE2 [2]) is reported as 1090 nM and the Kd (BACE1 [4]) is reported as 3060 nM.

`C=CCCOc1ccc(C(=O)Nc2cccc(C3(C)COCC(N)=N3)c2)nc1` (racemic) [Example 64, 5-but-3-enyloxy-pyridine-2-carboxylic acid [3-((RS)-5-amino-3-methyl-3,6-dihydro-2H-[1,4]oxazin-3-yl)-phenyl]-amide] showed an IC50 (BACE1 [3]) of 660 nM, a Kd (BACE2 [2]) of 7820 nM and a Kd (BACE1 [4]) of 483 nM.

Compound `Cc1cnc(C(=O)Nc2cccc(C3(C)COCC(N)=N3)c2)cn1` (racemic) [Example 65, 5-methyl-pyrazine-2-carboxylic acid [3-((RS)-5-amino-3-methyl-3,6-dihydro-2H-[1,4]oxazin-3-yl)-phenyl]-amide] has an IC50 (BACE1 [3]) of 180 nM, a Kd (BACE2 [2]) of 1120 nM and a Kd (BACE1 [4]) of 2470 nM.

`CC1(c2cccc(NC(=O)c3ccc(OCc4ccccc4)cn3)c2)COCC(N)=N1` (racemic) [Example 66, 5-benzyloxy-pyridine-2-carboxylic acid [3-((RS)-5-amino-3-methyl-3,6-dihydro-2H-[1,4]oxazin-3-yl)-phenyl]-amide hydrochloride] showed an IC50 (BACE1 [3]) of 680 nM, a Kd (BACE2 [2]) of 159 nM and a Kd (BACE1 [4]) of 173 nM.

`CC1(c2cc(NC(=O)c3ccc(-c4ccco4)cn3)ccc2F)COCC(N)=N1` (racemic) [Example 76, 5-furan-2-yl-pyridine-2-carboxylic acid [3-((RS)-5-amino-3-methyl-3,6-dihydro-2H-[1,4]oxazin-3-yl)-4-fluoro-phenyl]-amide] gave an IC50 (BACE1 [3]) of 15 nM, a Kd (BACE2 [2]) of 988 nM and a Kd (BACE1 [4]) of 93 nM.

Work on `CC1(c2cc(NC(=O)c3ccc(N4CCCC4)cn3)ccc2F)COCC(N)=N1` (racemic) [Example 77, 5-pyrrolidin-1-yl-pyridine-2-carboxylic acid [3-((RS)-5-amino-3-methyl-3,6-dihydro-2H-[1,4]oxazin-3-yl)-4-fluoro-phenyl]-amide] yielded an IC50 (BACE1 [3]) of 800 nM, a Kd (BACE2 [2]) of 2600 nM and a Kd (BACE1 [4]) of 1440 nM.

In the case of `CC1(c2cc(NC(=O)c3cc(-c4cccs4)on3)ccc2F)COCC(N)=N1` (racemic) [Example 78, 5-thiophen-2-yl-isoxazole-3-carboxylic acid [3-((RS)-5-amino-3-methyl-3,6-dihydro-2H-[1,4]oxazin-3-yl)-4-fluoro-phenyl]-amide], the IC50 (BACE1 [3]) is reported as 500 nM, the Kd (BACE2 [2]) is reported as 6500 nM and the Kd (BACE1 [4]) is reported as 885 nM.

In the case of `C[C@@]1(c2cc(NC(=O)c3ccc(Cl)cn3)ccc2F)COCC(N)=N1` [Example 21, (R)-5-chloro-pyridine-2-carboxylic acid [3-(5-amino-3-methyl-3,6-dihydro-2H-[1,4]oxazin-3-yl)-4-fluoro-phenyl]-amide], the IC50 (BACE2 [1]) is reported as 2 nM and the Kd (BACE2 [2]) is reported as 4 nM.

`C[C@@]1(c2cc(NC(=O)c3ncc(Cl)cc3Cl)ccc2F)COCC(N)=N1` [Example 34, 3,5-dichloro-pyridine-2-carboxylic acid [3-((R)-5-amino-3-methyl-3,6-dihydro-2H-[1,4]oxazin-3-yl)-4-fluoro-phenyl]-amide] was tested, and the IC50 (BACE2 [1]) was 4 nM and the Kd (BACE2 [2]) was 3 nM.

Compound `C[C@@]1(c2cc(NC(=O)c3ccc(C#N)cc3F)ccc2F)COCC(N)=N1` [Example 42, N-[3-((R)-5-amino-3-methyl-3,6-dihydro-2H-[1,4]oxazin-3-yl)-4-fluoro-phenyl]-4-cyano-2-fluoro-benzamide] has an IC50 (BACE1 [3]) of 190 nM, a Kd (BACE2 [2]) of 2550 nM and a Kd (BACE1 [4]) of 208 nM.

With `Cc1nc(C(F)(F)F)c(C(=O)Nc2ccc(F)c([C@]3(C)COCC(N)=N3)c2)s1` [Example 47, 2-methyl-4-trifluoromethyl-thiazole-5-carboxylic acid [3-((R)-5-amino-3-methyl-3,6-dihydro-2H-[1,4]oxazin-3-yl)-4-fluoro-phenyl]-amide] the IC50 (BACE1 [3]) was 800 nM and the IC50 (BACE2 [1]) was 730 nM.

Work on `CC1(C)OCC(N)=N[C@]1(C)c1cc(NC(=O)C2(C(F)(F)F)CC2)ccc1F` [Example 55, 1-trifluoromethyl-cyclopropanecarboxylic acid [3-((R)-5-amino-2,2,3-trimethyl-3,6-dihydro-2H-[1,4]oxazin-3-yl)-4-fluoro-phenyl]-amide] yielded an IC50 (BACE2 [1]) of 46 nM, a Kd (BACE2 [2]) of 2300 nM and a Kd (BACE1 [4]) of 6400 nM.
